Test results taken from patent US11174250B2, “Substituted carboxamides as inhibitors of WDR5 protein-protein binding” (PROPELLON THERAPEUTICS INC., priority 2016, dated 2021).
pIC50, pKd: −log10 of the molar value. Where two headings read alike, the source gives them in different places.

Assays:
[1] = molecular target: MLL1-WRAD2 complex (Homo sapiens (Human), UniProt P61964); assay: MLL1-WRAD2 enzyme assay (in vitro methyl transferase assay); format: biochemical; conditions: MLL1-WRAD2 assay; read-out: In vitro MLL1 activity (IC50)
Method: Reaction was initiated with 1 μM 3H-SAM and incubated for 1 hour at 30° C. Reaction mixture was transferred to P81 filter-paper and washed with PBS before detection.

[2] = system: MV4-11 cells; assay: Cell proliferation assay (ATPlite); format: cell-based; conditions: Homo sapiens, MV4-11, 120 h; MV-411 cells, five days; read-out: In vitro whole cell potency in MV-411 cells, (IC50)
Method: MV4-11 cells were seeded into a 96-well plate at 1,000 cells/well in 150 μl medium (Alpha-MEM containing 10% FBS, 100 μg/ml Normocin, and 50 μg/ml Gentamycin, Invitrogen). A HP D300 digital dispenser was used to dose cells with DMSO or test compounds across a 10-point range of concentrations (high dose of 10 μM), and cultures were grown in a humidified 5% CO2 incubator at 37° C. After five days, plates were removed from incubator and equilibrated to room temperature. An equal volume of ATPlite assay reagent was added to each well, and samples were processed according to manufacturer's instructions (Perkin Elmer). Luminescent signal was measured using an Envision plate reader equipped with a US-Luminescence detector.

[3] = molecular target: WDR5 protein (Homo sapiens (Human), UniProt P61964); assay: Surface Plasmon Resonance (SPR) assay; format: binding; conditions: SPR; for residence time: τ=1/koff, read-out: Residence Time (t, min)
Method: Exemplary compounds of the application were dissolved in 100% DMSO at 10 mM, assayed fresh, and then stored at −20° C. for repeat studies and other experiments. Full length WDR5 with an N-terminal His tag and C-terminal AviTag (Avidity Inc.) was expressed in E. coli with coexpression of BirA to biotin label the protein in vivo. Purification was via Ni-NTA. The purified WDR5 protein has a molecular weight of 41976 Da.
SPR studies were performed using a Biacore™ T200 instrument (GE Health Sciences Inc.). Biotinylated WDR5 protein (approximately 3000RU) was stably captured to streptavidin coupled SA chips according to the manufacture's protocol (GE Health Sciences Inc.). The running buffer used was HBS-EP (20 mM Hepes pH 7.4, 150 mM NaCl, 3 mM EDTA, 0.05% P-20) plus 5% DMSO with a flow rate of 40p1/min. For SPR analysis, 5 different concentrations of each exemplary compound of the application were sprayed into 96 or 384 well plates using an HP D300 digital dispenser. […] Curve fitting and KD calculations were performed with the Biacore T200 Evaluation software (GE Health Sciences Inc).

[4] = Table 1, read-out: WDR5 binding affinity (KD)
[5] = Table 2, read-out: WDR5 binding affinity SPR (KD)

pIC50 [1] | pIC50 [2] | pKd [3, 4] | pKd [3, 5] | residence time [3] | Compound
6.54 | 6.93 | 9.02 | 9.02 | 74.4 min | C[C@@H]1CN(c2ccc(-c3cc(C(=O)NC4CCCCC4)ccc3F)cc2NC(=O)c2c[nH]c(=O)cc2C(F)(F)F)C[C@H](C)N1C [Example 46, N-(5′-(cyclohexylcarbamoyl)-2′-fluoro-4-((3S,5R)-3,4,5-trimethylpiperazin-1-yl)-[1,1′-biphenyl]-3-yl)-6-oxo-4-(trifluoromethyl)-1,6-dihydropyridine-3-carboxamide]
5.62 | 5.70 | 8.10 | 8.10 | 9.58 min | C[C@@H]1CN(c2ccc(-c3cc(C(=O)N4CCOCC4)ccc3F)cc2NC(=O)c2c[nH]c(=O)cc2C(F)(F)F)C[C@H](C)N1C [Example 47, N-(2′-fluoro-5′-(morpholine-4-carbonyl)-4-((3S,5R)-3,4,5-trimethylpiperazin-1-yl)-[1,1′-biphenyl]-3-yl)-6-oxo-4-(trifluoromethyl)-1,6-dihydropyridine-3-carboxamide]
5.80 | 5.65 | 8.15 | 8.15 | 3.89 min | CN1CCN(c2ccc(-c3cc(CN4CCOCC4)ccc3F)cc2NC(=O)c2c[nH]c(=O)cc2C(F)F)CC1 [Example 49, 4-(difluoromethyl)-N-(2′-fluoro-4-(4-methylpiperazin-1-yl)-5′-(morpholinomethyl)-[1,1′-biphenyl]-3-yl)-6-oxo-1,6-dihydropyridine-3-carboxamide]
5.75 | 6.03 | 8.40 | 8.40 | 12.6 min | C[C@@H]1CN(c2ccc(-c3cc(OCC4CC4)ncc3F)cc2NC(=O)c2c[nH]c(=O)cc2C(F)(F)F)C[C@H](C)N1C [Example 50, N-(5-(2-(cyclopropylmethoxy)-5-fluoropyridin-4-yl)-2-((3S,5R)-3,4,5-trimethylpiperazin-1-yl)phenyl)-6-oxo-4-(trifluoromethyl)-1,6-dihydropyridine-3-carboxamide]
5.25 | < 5.00 | < 6.70 | < 6.70 |  | CCN1CCN(c2ccc(-c3cc(CNC4CCCCC4)ccc3F)cc2NC(=O)c2c[nH]c(=O)cc2C(F)(F)F)CC1 [Example 63, N-(5′-((cyclohexylamino)methyl)-4-(4-ethylpiperazin-1-yl)-2′-fluoro-[1,1′-biphenyl]-3-yl)-6-oxo-4-(trifluoromethyl)-1,6-dihydropyridine-3-carboxamide]
5.96 | 5.95 | 8.14 | 8.14 | 3.79 min | CN1CCN(c2ccc(-c3cc(CN4CCN(CC5CC5)CC4)ccc3F)cc2NC(=O)c2c[nH]c(=O)cc2C(F)(F)F)CC1 [Example 66, N-(5′-((4-(cyclopropylmethyl)piperazin-1-yl)methyl)-2′-fluoro-4-(4-methylpiperazin-1-yl)-[1,1′-biphenyl]-3-yl)-6-oxo-4-(trifluoromethyl)-1,6-dihydropyridine-3-carboxamide]
5.94 | 6.53 | 8.49 | 8.49 | 8.8 min | CN1CCN(c2ccc(-c3cc(CN(C)C4CCCCC4)ccc3F)cc2NC(=O)c2c[nH]c(=O)cc2C(F)(F)F)CC1 [Example 67, N-(5′-((cyclohexyl(methyl)amino)methyl)-2′-fluoro-4-(4-methylpiperazin-1-yl)-[1,1′-biphenyl]-3-yl)-6-oxo-4-(trifluoromethyl)-1,6-dihydropyridine-3-carboxamide]
5.72 | 5.75 | 8.11 | 8.11 | 3.81 min | CN1CCN(c2ccc(-c3cc(CN4CCN(Cc5ccc(F)cc5)CC4)ccc3F)cc2NC(=O)c2c[nH]c(=O)cc2C(F)(F)F)CC1 [Example 68, N-(2′-fluoro-5′-((4-(4-fluorobenzyl)piperazin-1-yl)methyl)-4-(4-methylpiperazin-1-yl)-[,1′-biphenyl]-3-yl)-6-oxo-4-(trifluoromethyl)-1,6-dihydropyridine-3-carboxamide]
5.54 | < 5.00 | 8.27 | 8.27 | 2.36 min | CN1CCN(c2ccc(-c3cc(CN4CC[C@@H](O)C4)ccc3F)cc2NC(=O)c2c[nH]c(=O)cc2C(F)(F)F)CC1 [Example 69, (R)—N-(2′-fluoro-5′-((3-hydroxypyrrolidin-1-yl)methyl)-4-(4-methylpiperazin-1-yl)-[1,1′-biphenyl]-3-yl)-6-oxo-4-(trifluoromethyl)-1,6-dihydropyridine-3-carboxamide]
5.95 | 5.94 | 8.36 | 8.36 | 5.8 min | CN1CCN(c2ccc(-c3cc(CN4CCC(N5CCOCC5)CC4)ccc3F)cc2NC(=O)c2c[nH]c(=O)cc2C(F)(F)F)CC1 [Example 70, N-(2′-fluoro-4-(4-methylpiperazin-1-yl)-5′-((4-morpholinopiperidin-1-yl)methyl)-[1,1′-biphenyl]-3-yl)-6-oxo-4-(trifluoromethyl)-1,6-dihydropyridine-3-carboxamide]
5.68 | 5.57 | 8.32 | 8.32 | 4.29 min | CN1CCN(c2ccc(-c3cc(CN4CC[C@@H](N(C)C)C4)ccc3F)cc2NC(=O)c2c[nH]c(=O)cc2C(F)(F)F)CC1 [Example 71, (R)—N-(5′-((3-(dimethylamino)pyrrolidin-1-yl)methyl)-2′-fluoro-4-(4-methylpiperazin-1-yl)-[1,1′-biphenyl]-3-yl)-6-oxo-4-(trifluoromethyl)-1,6-dihydropyridine-3-carboxamide]
5.23 | < 5.00 | 8.29 | 8.29 | 1.16 min | CN1CCN(c2ccc(-c3cc(CN4CCNCC4)ccc3F)cc2NC(=O)c2c[nH]c(=O)cc2C(F)(F)F)CC1 [Example 72, N-(2′-fluoro-4-(4-methylpiperazin-1-yl)-5′-(piperazin-1-ylmethyl)-[1,1′-biphenyl]-3-yl)-6-oxo-4-(trifluoromethyl)-1,6-dihydropyridine-3-carboxamide]
6.23 | 6.30 | 8.38 | 8.38 | 5.44 min | CN1CCN(c2ccc(-c3cc(CN4CCC(F)CC4)ccc3F)cc2NC(=O)c2c[nH]c(=O)cc2C(F)(F)F)CC1 [Example 73, N-(2′-fluoro-5′-((4-fluoropiperidin-1-yl)methyl)-4-(4-methylpiperazin-1-yl)-[1,1′-biphenyl]-3-yl)-6-oxo-4-(trifluoromethyl)-1,6-dihydropyridine-3-carboxamide]
5.68 | 5.91 | 8.23 | 8.23 | 5.13 min | CN1CCN(c2ccc(-c3cc(CN4CC[C@@H](S(C)(=O)=O)C4)ccc3F)cc2NC(=O)c2c[nH]c(=O)cc2C(F)(F)F)CC1 [Example 75, (R)—N-(2′-fluoro-4-(4-methylpiperazin-1-yl)-5′-((3-(methylsulfonyl)pyrrolidin-1-yl)methyl)-[1,1′-biphenyl]-3-yl)-6-oxo-4-(trifluoromethyl)-1,6-dihydropyridine-3-carboxamide]
5.72 | 6.10 | 8.26 | 8.26 | 3.81 min | CN1CCN(c2ccc(-c3cc(CN(C)[C@H]4CCOC4)ccc3F)cc2NC(=O)c2c[nH]c(=O)cc2C(F)(F)F)CC1 [Example 76, (S)—N-(2′-fluoro-5′-((methyl(tetrahydrofuran-3-yl)amino)methyl)-4-(4-methylpiperazin-1-yl)-[1,1′-biphenyl]-3-yl)-6-oxo-4-(trifluoromethyl)-1,6-dihydropyridine-3-carboxamide]
6.04 | 5.89 | 8.35 | 8.35 | 5.41 min | CN1CCN(c2ccc(-c3cc(CN4CCOC(C)(C)C4)ccc3F)cc2NC(=O)c2c[nH]c(=O)cc2C(F)(F)F)CC1 [Example 77, N-(5′-((2,2-dimethylmorpholino)methyl)-2′-fluoro-4-(4-methylpiperazin-1-yl)-[1,1′-biphenyl]-3-yl)-6-oxo-4-(trifluoromethyl)-1,6-dihydropyridine-3-carboxamide]

Compound | pIC50 [1] | pIC50 [2] | pKd [3, 4] | pKd [3, 5] | residence time [3]
CN1CCN(c2ccc(-c3cc(CN4C5COCC4C5)ccc3F)cc2NC(=O)c2c[nH]c(=O)cc2C(F)(F)F)CC1 [Example 74, N-(5′-(3-oxa-6-azabicyclo[3.1.1]heptan-6-ylmethyl)-2′-fluoro-4-(4-methylpiperazin-1-yl)-[1,1′-biphenyl]-3-yl)-6-oxo-4-(trifluoromethyl)-1,6-dihydropyridine-3-carboxamide] | 5.76 | 5.27 | 8.32 | 8.32 | 
C[C@@H]1CN(c2ccc(-c3cc(C(=O)Nc4ccccc4)ccc3F)cc2NC(=O)c2c[nH]c(=O)cc2C(F)(F)F)C[C@H](C)N1C [Example 80, N-(2′-fluoro-5′-(phenylcarbamoyl)-4-((3S,5R)-3,4,5-trimethylpiperazin-1-yl)-[1,1′-biphenyl]-3-yl)-6-oxo-4-(trifluoromethyl)-1,6-dihydropyridine-3-carboxamide] | 5.40 | 5.66 | 8.40 | 7.85 | 2.18 min
